Where no end group is shown, it is not given here. [ ]: non-standard residue; d: D form.
These compounds were tested on zebrafish model of intestinal mucosal injury (assay: Efficacy in relieving colitis: intestinal lumen area in TNBS-treated zebrafish). Settings: 15.0 μg/mL (positive control), 2 days after TNBS, n = 10.
Format: in vivo
Parameters: key to Activity in relieving intestinal lumen dilatation: * p < 0.05; ** p < 0.01; *** p < 0.001; “−“ indicates absence of activity; “+” indicates some relief of intestinal lumen dilatation; “#” indicates that all the zebrafishes died in the experiment; “&” indicates that 13 zebrafishes died in the experiment
Experimental: Experimental animals: Wild-type AB strain zebrafishes, bred by natural pair mating. Zebrafishes aged 3 days post fertilization (3 dpf). Zebrafishes were kept in fish farming water at 28° C. (water quality: 200 mg of instant sea salt in each 1L of reverse osmosis water, with the conductivity of 450-550 μS/cm; pH of 6.5-8.5; and hardness of 50-100 mg/L CaCO3), the experimental animal use license number is: SYXK (Zhe) 2012-0171, and the breeding management met the requirements of the international AAALAC certification (certification number: 001458).
(1) Grouping: Polypeptide group: prepared into a stock solution of 20.0 mg/mL with ultrapure water and stored at −20° C.
Positive control group: prednisone, as white powder, with batch number C10016501, Shanghai Macklin Biochemical Technology Co., Ltd., stored at 4° C.; prepared into a 15.0 mg/mL stock solution with DMSO, and stored in aliquots at −20° C.
Normal control group and model control group.
(2) Experimental method: 3 dpf wild-type AB strain zebrafishes were randomly selected and placed in a 6-well plate, with 30 zebrafishes in each well (experimental group). Except for the normal control group, all other experimental groups were given TNBS in water to establish the zebrafish model of intestinal mucosal injury. After 2 days of treatment at 28° C., TNBS was removed, and polypeptide compound in water (at concentrations shown in Table 4) was given respectively, and for the positive control, prednisone was 15.0 μg/mL. A normal control group (healthy group) and a model control group (intestinal mucosal injury group) were set up at the same time. The capacity of each well (experimental group) was 3 mL. After 2 days of treatment at 28° C., 10 zebrafishes were randomly selected from each experimental group and photographed under a dissecting microscope. NIS-Elements D 3.20 advanced image processing software was used to analyze and collect data, and the intestinal lumen area of the zebrafish was analyzed. The statistical analysis results of this indicator were used to evaluate the efficacy of the samples in relieving colitis. The statistics results were expressed as mean±SE. SPSS26.0 software was used for statistical analysis, and p<0.05 indicates statistically significant difference.
The concentration gradient of the test substances set in this experimental system was 250 μg/mL, 500 μg/mL, and 1000 μg/mL. […] When the concentration of the test substance was further increased for intervention, the death phenomenon of zebrafishes was found in the group; therefore, in the subsequent rounds of activity evaluation, each test polypeptide compound was uniformly administered at 1000 μg/mL for intervention.

Compound | Intestinal lumen area (pixels, mean ± SE) [pixels]
C[C@]12C=CC(=O)C=C1CC[C@@H]1[C@@H]2C(=O)C[C@@]2(C)[C@H]1CC[C@]2(O)C(=O)CO [Prednisone, prednisone, reference compound] | 34929 ± 1913

Same assay, conditions: 250 μg/mL in water, 2 days after TNBS, n = 10

Compound | Intestinal lumen area (pixels, mean ± SE) [pixels]
KEPVPQAK [Compound 4] | 48915 ± 2720
PRKVAAQ [Compound 5] | 42960 ± 2661

Same assay, conditions: 500 μg/mL in water, 2 days after TNBS, n = 10

Compound | Intestinal lumen area (pixels, mean ± SE) [pixels]
KEPVPQAK [Compound 4] | 40432 ± 3736
PRKVAAQ [Compound 5] | 45713 ± 4481

Same assay, conditions: 1000 μg/mL in water, 2 days after TNBS, n = 10

Compound | Intestinal lumen area (pixels, mean ± SE) [pixels]
KEPVPQAK [Compound 4] | 33664 ± 3758
PRKVAAQ [Compound 5] | 33977 ± 3524

Same assay, conditions: 1000 μg/mL; significance vs model control group of the same batch

Compound | Activity in relieving intestinal lumen dilatation
Pro-Val-Pro-Glu-Ala (PVPEA; printed: Pro-Val-Pro-Glu-Ala) [Compound 40] | +
Pro-Val-Pro-Gln-Ala (PVPQA; printed: Pro-Val-Pro-Gln-Ala) [Compound 39] | +
D-Glu-Pro-Val-Pro-Gln-Ala-Lys ([dE]PVPQAK; also: acetate salt) [Compound 78] | +
KEPV[dP]QAKPRKVAAQ [Compound 65] | * (* p < 0.05)
KEPVAQAKPRKVAAQ [Compound 22] | +
KEPVPQAKPRKVA[dA]Q [Compound 74] | +
KEPVGQAKPRKVAAQ [Compound 32] | +
EPVAQAK [Compound 54] | *** (*** p < 0.001)
KEPVPQAKPRKVAA[dQ] [Compound 75] | * (* p < 0.05)
Pro-Val-Pro-Ile-Ala (PVPIA; printed: Pro-Val-Pro-Ile-Ala) [Compound 41] | +
KEPVPQ[dA]KPRKVAAQ [Compound 67] | * (* p < 0.05)
VPYKEPVPQAKPRKVAAQ [Compound 88] | * (* p < 0.05)
KEPVPAAKPRKVAAQ [Compound 23] | +
GPETAFLRKEPVPQAKPRKVAAQ [Compound 95] | ** (** p < 0.01)
KEPVPQAKARKVAAQ [Compound 26] | * (* p < 0.05)
Pro-Gln-Ala-Lys (PQAK; printed: Pro-Gln-Ala-Lys) [Compound 14] | +
KEGVPQAKPRKVAAQ [Compound 31] | * (* p < 0.05)
EPVPQAKVPY [Compound 102] | +
KEGVPQAKGRKVAAQ [Compound 36] | +
EPVPQ[dA]K [Compound 83] | * (* p < 0.05)
KEPIPQAKPRKVAAQ [Compound 106] | ** (** p < 0.01)
EPVPQAKPR [Compound 57] | ** (** p < 0.01)
KEPVPQAKPRKAAAQ [Compound 29] | * (* p < 0.05)
EPVPQAA [Compound 48] | ** (** p < 0.01)
VPPKEPVPQAKPRKVAAQ [Compound 100] | *** (*** p < 0.001)

Compound | Activity in relieving intestinal lumen dilatation
EPVPQA[dK] [Compound 84] | +
KAPVPQAKPRKVAAQ [Compound 20] | &
Lys-Glu-Pro-Val (KEPV; printed: Lys-Glu-Pro-Val) [Compound 7] | +
KEPVPQAAPRKVAAQ [Compound 24] | +
KEP[dV]PQAKPRKVAAQ [Compound 64] | +
KEPVPQAKPRKVAAA [Compound 30] | +
E[dP]VPQAK [Compound 79] | +
KEAVPQAKPRKVAAQ [Compound 21] | +
EPAPQAK [Compound 52] | +
KE[dP]VPQAKPRKVAAQ [Compound 63] | *** (*** p < 0.001)
PVPQAK [Compound 44] | −
KEPVPQAK [Compound 4] | * (* p < 0.05)
DPVPQAK [Compound 49] | * (* p < 0.05)
EPVPQAKPRK [Compound 38] | * (* p < 0.05)
Lys-Glu-Pro-Val-Pro (KEPVP; printed: Lys-Glu-Pro-Val-Pro) [Compound 85] | * (* p < 0.05)
RKDVYKEPVPQAK [Compound 92] | ** (** p < 0.01)
Val-Pro-Gln-Ala (VPQA; printed: Val-Pro-Gln-Ala) [Compound 13] | −
Glu-Pro-Val-Pro-Gln (EPVPQ; printed: Glu-Pro-Val-Pro-Gln) [Compound 86] | * (* p < 0.05)
KEPVGQAKGRKVAAQ [Compound 34] | * (* p < 0.05)
EPVGQAK [Compound 77] | −
KEGVGQAKPRKVAAQ [Compound 37] | +
PRKVAAQ [Compound 5] | * (* p < 0.05)
EGVPQAK [Compound 76] | +
KQPVPQAKPRKVAAQ [Compound 105] | ** (** p < 0.01)
Pro-Val-Pro-Ala (PVPA; printed: Pro-Val-Pro-Ala) [Compound 42] | +

Compound | Activity in relieving intestinal lumen dilatation
RKDVYPVPQ [Compound 94] | *** (*** p < 0.001)
KEPVPQAK[dP]RKVAAQ [Compound 69] | +
APVPQAK [Compound 46] | +
EP[dV]PQAK [Compound 80] | +
EPVPQAKPRKVA [Compound 51] | * (* p < 0.05)
Glu-Pro-Val-Pro (EPVP; printed: Glu-Pro-Val-Pro) [Compound 9] | ** (** p < 0.01)
KEPVPQAKPRAVAAQ [Compound 28] | +
KEPVPQAKPRK[dV]AAQ [Compound 72] | ** (** p < 0.01)
PVPQAKPR [Compound 59] | +
Lys-Val-Ala-Ala (KVAA; printed: Lys-Val-Ala-Ala) [Compound 16] | +
EPV[dP]QAK [Compound 81] | +
EPVPQAKP [Compound 58] | +
AEPVPQAKPRKVAAQ [Compound 19] | +
KEPVP[dQ]AKPRKVAAQ [Compound 66] | * (* p < 0.05)
KEPVPQAKGRKVAAQ [Compound 33] | +
PVPQAKP [Compound 60] | −
K[dE]PVPQAKPRKVAAQ [Compound 62] | * (* p < 0.05)
KEGVGQAKGRKVAAQ [Compound 35] | −
KEPVPQAKPRKVAAE [Compound 103] | * (* p < 0.05)
KEPVPQ [Compound 87] | +
SSEDIKEKEPVPQAKPRKVAAQ [Compound 97] | *** (*** p < 0.001)
KEPVPQAKPR[dK]VAAQ [Compound 71] | +
KEPVPQAKPAKVAAQ [Compound 27] | +

Same assay, conditions: 250, 500, 1000 μg/mL; Table 4

Compound | Intestinal lumen area compared with the model control group (in words)
KEPVPQAK [Compound 4] | significant statistical differences compared with the model control group
PRKVAAQ [Compound 5] | significant statistical differences compared with the model control group
